Experimental data: patent publication EP3822637A1, “METHOD FOR DETERMINING PARP INHIBITOR RESPONSIVENESS AND IMPROVING PARP INHIBITOR THERAPY” (Universität Zürich, priority 2019, dated 2021)
“Also recorded” adds a separate entry of the source. Each block holds one compound with its values, some of them ahead of it.

Legend:
TRIP12 [1] = biological target: T1, TRIP12 (Homo sapiens, UniProt Q14669); experiment: In vitro ubiquitin ligase activity assay (TRIP12 auto-ubiquitylation, with and without PAR chains); assay type: biochemical; settings: absence and presence of PAR chains; Fig. 16a
T1 construct: The full-length TRIP12 (TRIP12-203, transcript ENST 00000389044.8) was cloned into the pAc-GFP1-C1 (Clontech) vector; expressed in transfected cells
Description: HEK293T cells were transfected with plasmids encoding FLAG-TRIP12 WT or the point mutants R869A or C2034A. Cells were lysed in TNE buffer (50 mM Tris-HCI pH 8.0, 150 mM NaCl, 0,1% Igepal CA630, 1 mM EDTA) supplemented with 2 mM MgCl2, cOmplete inhibitor cocktail (Roche), phosphoSTOP (Roche) and 25 U/ml benzonase. One milligram of protein lysates was immunoprecipitated using protein G- sepharose (GE Heltcare) coupled to 1 µl of anti-FLAG antibody for 3 hours at 4°C. After four washes with IP buffer the beads were first equilibrated in TE buffer (50 mM Tris-HCI pH 8.0, 150 mM NaCl) supplemented with cOmplete inhibitor cocktail (Roche), 1 mM PMSF, and then re-suspended in 5 volumes of TE buffer with 0.3 mg/ml FLAG peptide (3x FLAG peptide, Sigma) for 1 hour at 4°C at low rpm. Samples were then centrifuged at 100 x g for two minutes and the supernatant containing the eluted protein was stored at -80°C.
Auto-PARylated PARP1 was bound to histidine beads (ProBond) for 45 minutes at 4°C. The beads were then equilibrated in reaction buffer (25 mM Tris-HCI pH 7.4, 100 mM NaCl) and equally distributed in reaction tubes. […]

TRIP12 [2] = biological target: T1, TRIP12; experiment: In vivo ubiquitin ligase activity assay in cells (GFP-TRIP12 and HA-ubiquitin over-expressed, immunoprecipitation); assay type: cell-based; settings: GFP-TRIP12 immunoprecipitated and probed for HA-ubiquitin; Fig. 16b
Description: HEK293T or U-2 OS cells transfected with the indicated plasmids and siRNAs were washed twice with cold PBS and directly lysed on ice with RIPA buffer (50 mM Tris- HCI pH 8.0, 150 mM NaCl, 1% Igepal CA630, 0.1% SDS, 0.1% Na-deoxycholic acid), supplemented with 2 mM MgCl2, cOmplete inhibitor cocktail (Roche), phosphoSTOP (Roche), 25 U/ml benzonase, 1 mM phenylmethylsulfonylfluoride (PMSF), and 10 mM N-ethylmaleimide (NEM). Lysates were incubated for 5 minutes at room temperature and then centrifuged at 15'000 x g for 15 minutes. […] Beads were collected by centrifugation, washed four times with RIPA buffer and eluted by boiling in 10x SDS-PAGE sample buffer. Samples were subjected to SDS-PAGE for immunoblotting.

cancer cells = experiment: Clonogenic survival assay, Heclin combined with PARPi; assay type: cell-based; settings: Heclin combined with PARP inhibitor Olaparib; Fig. 16d
Description: Cells transfected with the indicated siRNAs were seeded at single cell density and exposed to PARPi at the indicated final concentration. All conditions were performed in triplicates. Cells were then incubated for 10 days and the number of colonies with more than 50 cells was counted after staining with crystal violet (0.5% crystal violet in 20% ethanol). GraphPad Prism was used to display clonogenic survival data.

Smurf2 = Smurf2 (Homo sapiens, UniProt Q9HAU4); settings: cited from earlier work
Nedd4 = biological target: T2, Nedd4 (Homo sapiens, UniProt P46934); settings: cited from earlier work
T2 sequence (P46934 1-1319): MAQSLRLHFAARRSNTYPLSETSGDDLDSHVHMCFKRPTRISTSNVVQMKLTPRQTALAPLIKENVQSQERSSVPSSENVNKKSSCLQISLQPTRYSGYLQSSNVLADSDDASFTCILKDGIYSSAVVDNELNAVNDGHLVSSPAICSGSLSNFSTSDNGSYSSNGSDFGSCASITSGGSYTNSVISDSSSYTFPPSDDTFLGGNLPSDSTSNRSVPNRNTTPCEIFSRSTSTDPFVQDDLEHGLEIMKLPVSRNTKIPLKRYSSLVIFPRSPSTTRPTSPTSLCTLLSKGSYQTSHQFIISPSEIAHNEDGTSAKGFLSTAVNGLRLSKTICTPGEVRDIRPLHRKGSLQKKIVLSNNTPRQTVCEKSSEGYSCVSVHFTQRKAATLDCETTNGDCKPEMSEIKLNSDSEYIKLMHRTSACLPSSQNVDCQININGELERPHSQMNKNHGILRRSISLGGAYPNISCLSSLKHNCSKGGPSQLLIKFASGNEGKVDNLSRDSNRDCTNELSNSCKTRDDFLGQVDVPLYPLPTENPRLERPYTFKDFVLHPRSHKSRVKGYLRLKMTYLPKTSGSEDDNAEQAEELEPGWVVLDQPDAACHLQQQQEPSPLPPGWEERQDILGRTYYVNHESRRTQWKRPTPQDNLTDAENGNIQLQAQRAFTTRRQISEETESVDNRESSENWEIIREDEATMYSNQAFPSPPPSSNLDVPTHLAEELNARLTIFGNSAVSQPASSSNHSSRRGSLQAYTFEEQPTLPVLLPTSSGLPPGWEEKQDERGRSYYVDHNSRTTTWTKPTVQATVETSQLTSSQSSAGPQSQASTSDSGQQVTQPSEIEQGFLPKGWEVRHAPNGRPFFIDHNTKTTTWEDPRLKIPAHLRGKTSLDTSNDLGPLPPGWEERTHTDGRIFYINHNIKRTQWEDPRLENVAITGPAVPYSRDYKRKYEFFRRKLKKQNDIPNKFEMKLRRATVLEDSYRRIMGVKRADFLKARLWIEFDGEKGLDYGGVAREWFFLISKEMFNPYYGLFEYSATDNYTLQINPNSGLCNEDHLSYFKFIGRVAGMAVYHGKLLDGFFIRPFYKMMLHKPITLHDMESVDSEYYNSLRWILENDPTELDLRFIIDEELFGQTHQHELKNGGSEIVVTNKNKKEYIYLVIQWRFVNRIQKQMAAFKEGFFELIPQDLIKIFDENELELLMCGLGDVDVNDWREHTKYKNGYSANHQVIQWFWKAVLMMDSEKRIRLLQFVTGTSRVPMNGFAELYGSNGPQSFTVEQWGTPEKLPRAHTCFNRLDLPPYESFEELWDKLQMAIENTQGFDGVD

WWP2 = WWP2 (Homo sapiens, UniProt O00308); settings: cited from earlier work
PARP1 = PARP1 protein levels in treated cells (Western blot / high-content microscopy); settings: U-2 OS cancer cells; Fig. 16c
Description: Images were analyzed with the inbuilt Olympus ScanR Image Analysis Software Version 3.0.1, a dynamic background correction was applied, and nuclei segmentation was performed using an integrated intensity-based object detection module based on the DAPI signal. All downstream analyses were focused on properly detected nuclei containing a 2C-4C DNA content as measured by total and mean DAPI intensities. Fluorescence intensities were quantified and are depicted as arbitrary units. Color-coded scatter plots of asynchronous cell populations were generated with Spotfire data visualization software (TIBCO) and GraphPad Prism 8.0 was used for depicting data as violin plots. Within one experiment, similar cell numbers were compared for the different conditions. […] Representative scatter plots and quantifications of independent experiments, typically containing several thousand cells each, are shown. […]

[3] = tested on: BRCA-proficient cancer cells; experiment: Clonogenic survival (colony formation) assay with PARPi after siRNA down-regulation of TRIP12; assay type: cell-based, Human; settings: siRNA against TRIP12; increasing doses of PARPi; 10 days; rescued by PARP1 co-depletion; Fig. 6a-d, 12a-c
Description: Human U-2 OS cells (ATCC), RPE-1 (ATCC), HEK293T (ATCC), MCF-7 (kindly provided by Ross Chapman), MDA-MB-436 (kindly provided by Michael Hottiger), U-2 OS PARP1 KO cells (kindly provided by Keith Caldecott) and HeLa Kyoto PARP1-LAP cells stably expressing EGFP-tagged PARP1 from its natural promoter (kindly provided by Stoyno S. Stoynov) were grown under standard sterile cell culture conditions (37°C, humidified atmosphere, 5% CO2) in Dulbecco's modified Eagle's medium (DMEM, Thermo Fisher Scientific) containing 10% fetal bovine serum (GIBCO) and 1% of penicillin-streptomycin antibiotics. HCC1143 cells (kindly provided by Mohamed Bentires-Alj) were grown in RPMI-1640 medium (Thermo Fisher Scientific) containing 10% fetal bovine serum (GIBCO) and 1% penicillin- streptomycin antibiotics. SUM149PT (generated by the Ethier laboratory; available at http://www.bioivt.com/ and kindly provided by Alessandro Sartori) were grown in Ham's F-12 medium (Thermo Fisher Scientific) containing 10% fetal bovine serum and 1% of penicillin-streptomycin antibiotics. All cultured cells were routinely tested for mycoplasma contamination and assessed by quantitative image-based cytometry (QIBC) for proper proliferation and absence of abnormal stress signals. […] Transfections with siRNAs were performed for 72h, unless stated otherwise, with Ambion Silencer Select siRNA using Lipofectamine RNAi/MAX (Thermo Fisher Scientific). For individual transfections the siRNAs were used at a final concentration of 25nM. When multiple siRNAs were combined, the final concentration was kept constant in all samples of an experiment. The following Ambion Silencer Select siRNAs were used: TRIP12 (s17808, s17809, s17810), PARP1 (s1098), DTX1 (s4355, s4356), DTX2 (s41519, s223231), DTX4 (s23319, s23321), HUWE1 (s19596, s19597), RNF146 (s37821, s37822). […] Cells were then incubated for 10 days and the number of colonies with more than 50 cells was counted after staining with crystal violet (0.5% crystal violet in 20% ethanol). […]

T1 sequence (Q14669 with tags, fused parts or gaps): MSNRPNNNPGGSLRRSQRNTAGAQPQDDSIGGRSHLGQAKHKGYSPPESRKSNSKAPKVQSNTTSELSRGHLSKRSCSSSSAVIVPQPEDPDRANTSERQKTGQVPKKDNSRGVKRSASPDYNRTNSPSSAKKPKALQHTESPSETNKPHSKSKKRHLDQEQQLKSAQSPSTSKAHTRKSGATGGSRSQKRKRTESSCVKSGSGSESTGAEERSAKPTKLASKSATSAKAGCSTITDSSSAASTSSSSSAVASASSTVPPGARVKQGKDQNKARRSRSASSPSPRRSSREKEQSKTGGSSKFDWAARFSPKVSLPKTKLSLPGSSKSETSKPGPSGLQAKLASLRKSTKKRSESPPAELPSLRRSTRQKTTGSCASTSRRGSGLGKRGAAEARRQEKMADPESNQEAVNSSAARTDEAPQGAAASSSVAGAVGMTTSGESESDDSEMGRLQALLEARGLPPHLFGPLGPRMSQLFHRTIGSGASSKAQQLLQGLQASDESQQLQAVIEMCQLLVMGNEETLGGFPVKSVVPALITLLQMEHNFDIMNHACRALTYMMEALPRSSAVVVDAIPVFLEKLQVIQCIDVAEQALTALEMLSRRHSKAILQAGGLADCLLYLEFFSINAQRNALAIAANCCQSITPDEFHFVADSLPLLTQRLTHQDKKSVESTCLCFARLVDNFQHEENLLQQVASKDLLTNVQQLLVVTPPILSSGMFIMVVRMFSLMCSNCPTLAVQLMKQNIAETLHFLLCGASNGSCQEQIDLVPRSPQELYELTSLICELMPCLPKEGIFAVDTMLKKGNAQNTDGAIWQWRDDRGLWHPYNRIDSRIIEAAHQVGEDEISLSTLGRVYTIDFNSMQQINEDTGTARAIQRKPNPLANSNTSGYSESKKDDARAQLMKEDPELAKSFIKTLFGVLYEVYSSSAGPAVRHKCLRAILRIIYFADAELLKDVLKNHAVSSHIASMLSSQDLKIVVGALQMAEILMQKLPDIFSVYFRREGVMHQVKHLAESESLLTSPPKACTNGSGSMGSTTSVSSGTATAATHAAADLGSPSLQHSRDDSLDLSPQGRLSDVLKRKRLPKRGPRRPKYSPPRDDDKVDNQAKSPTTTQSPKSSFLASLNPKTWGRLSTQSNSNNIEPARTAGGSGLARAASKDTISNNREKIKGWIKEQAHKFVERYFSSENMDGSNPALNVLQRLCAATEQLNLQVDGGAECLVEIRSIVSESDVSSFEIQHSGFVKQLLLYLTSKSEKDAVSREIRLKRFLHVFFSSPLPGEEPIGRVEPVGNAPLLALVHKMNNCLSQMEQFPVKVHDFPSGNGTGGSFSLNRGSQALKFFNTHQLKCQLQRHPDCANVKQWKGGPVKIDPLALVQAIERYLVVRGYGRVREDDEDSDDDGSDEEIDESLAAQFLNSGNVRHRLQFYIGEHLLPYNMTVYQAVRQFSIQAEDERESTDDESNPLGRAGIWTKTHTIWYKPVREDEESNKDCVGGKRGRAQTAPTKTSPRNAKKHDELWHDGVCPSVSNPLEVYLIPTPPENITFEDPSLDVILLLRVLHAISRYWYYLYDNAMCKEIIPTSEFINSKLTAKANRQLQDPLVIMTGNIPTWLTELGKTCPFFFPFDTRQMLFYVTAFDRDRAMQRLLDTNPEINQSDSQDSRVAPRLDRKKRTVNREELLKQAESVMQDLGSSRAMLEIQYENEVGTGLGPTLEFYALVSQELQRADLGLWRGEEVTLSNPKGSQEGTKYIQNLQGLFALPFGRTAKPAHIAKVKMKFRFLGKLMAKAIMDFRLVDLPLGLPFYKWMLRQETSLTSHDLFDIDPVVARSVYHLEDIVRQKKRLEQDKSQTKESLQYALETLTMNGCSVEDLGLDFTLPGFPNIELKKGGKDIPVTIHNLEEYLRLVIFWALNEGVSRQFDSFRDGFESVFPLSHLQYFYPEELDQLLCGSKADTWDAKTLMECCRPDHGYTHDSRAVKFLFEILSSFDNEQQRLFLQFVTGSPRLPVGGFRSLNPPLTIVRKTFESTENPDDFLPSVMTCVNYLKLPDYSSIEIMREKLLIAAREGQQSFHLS
WWP2, sequence (O00308 whole entry, species assumed): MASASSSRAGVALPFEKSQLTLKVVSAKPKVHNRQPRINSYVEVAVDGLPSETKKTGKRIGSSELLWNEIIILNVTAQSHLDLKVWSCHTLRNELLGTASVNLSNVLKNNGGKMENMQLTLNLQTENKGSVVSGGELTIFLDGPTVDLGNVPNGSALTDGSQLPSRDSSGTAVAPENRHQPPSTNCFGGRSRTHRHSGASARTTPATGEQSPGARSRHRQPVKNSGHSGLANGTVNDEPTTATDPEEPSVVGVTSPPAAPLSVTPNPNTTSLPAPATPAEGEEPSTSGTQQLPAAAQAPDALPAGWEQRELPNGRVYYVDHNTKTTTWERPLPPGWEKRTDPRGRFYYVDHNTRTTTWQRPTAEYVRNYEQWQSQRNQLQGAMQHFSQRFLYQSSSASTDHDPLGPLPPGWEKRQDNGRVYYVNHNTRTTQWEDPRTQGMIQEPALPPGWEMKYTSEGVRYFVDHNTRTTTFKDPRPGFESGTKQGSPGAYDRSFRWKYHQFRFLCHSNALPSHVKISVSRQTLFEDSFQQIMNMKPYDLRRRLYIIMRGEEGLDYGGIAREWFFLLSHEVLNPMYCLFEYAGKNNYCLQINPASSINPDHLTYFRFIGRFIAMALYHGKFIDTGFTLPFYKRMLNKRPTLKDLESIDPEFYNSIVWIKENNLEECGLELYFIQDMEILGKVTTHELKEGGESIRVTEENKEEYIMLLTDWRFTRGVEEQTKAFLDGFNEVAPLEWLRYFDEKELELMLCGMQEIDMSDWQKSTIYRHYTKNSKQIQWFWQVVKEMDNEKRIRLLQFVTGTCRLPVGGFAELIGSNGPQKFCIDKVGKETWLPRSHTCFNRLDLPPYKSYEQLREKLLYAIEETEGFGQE
Smurf2, sequence (Q9HAU4 whole entry, species assumed): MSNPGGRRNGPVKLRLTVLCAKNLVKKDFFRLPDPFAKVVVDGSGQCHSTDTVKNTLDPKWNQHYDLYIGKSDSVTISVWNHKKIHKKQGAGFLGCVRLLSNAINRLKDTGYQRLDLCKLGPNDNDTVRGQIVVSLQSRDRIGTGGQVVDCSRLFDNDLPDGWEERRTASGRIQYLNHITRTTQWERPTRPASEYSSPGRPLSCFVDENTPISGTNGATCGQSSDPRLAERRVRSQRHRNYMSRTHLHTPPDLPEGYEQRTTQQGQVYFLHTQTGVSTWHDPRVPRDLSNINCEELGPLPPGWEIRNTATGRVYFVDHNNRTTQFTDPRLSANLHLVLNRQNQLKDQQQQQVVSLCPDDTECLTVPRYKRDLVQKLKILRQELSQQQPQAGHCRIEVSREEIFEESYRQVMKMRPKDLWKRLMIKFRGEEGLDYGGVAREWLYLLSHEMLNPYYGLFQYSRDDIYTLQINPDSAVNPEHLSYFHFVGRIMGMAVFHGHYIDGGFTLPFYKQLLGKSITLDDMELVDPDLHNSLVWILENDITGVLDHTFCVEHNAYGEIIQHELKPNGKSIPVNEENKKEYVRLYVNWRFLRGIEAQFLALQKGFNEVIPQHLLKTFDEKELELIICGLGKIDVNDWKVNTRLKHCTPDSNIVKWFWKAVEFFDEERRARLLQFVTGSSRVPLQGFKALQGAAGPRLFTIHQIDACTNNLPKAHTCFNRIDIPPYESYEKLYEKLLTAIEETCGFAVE

TRIP12 activity in vitro (TRIP12 [1]): inhibited
TRIP12 activity in vivo (TRIP12 [2]): inhibited
SMILES: CCc1ccc(C=CC(=O)Nc2ccc(C(C)=O)cc2)o1 [Heclin, N-(4-Acetylphenyl)-3-(5-ethyl-2-furanyl)-2-propenamide]
sensitization of cancer cells to PARPi in clonogenic survival assays (cancer cells): synergizes with the PARP inhibitor Olaparib to kill cancer cells; also recorded: sensitized cancer cells to PARPi
inhibition of ubiquitin ligase Smurf2 (Smurf2): inhibit
inhibition of ubiquitin ligase Nedd4 (Nedd4): inhibit
inhibition of ubiquitin ligase WWP2 (WWP2): inhibit
PARP1 levels upon Heclin treatment of cells (PARP1): stabilizes PARP1 in U-2 OS cancer cells in a time- and dose-dependent manner; also recorded: elevated PARP1 levels, in a time- and dose-dependent manner

SMILES: O=C(c1cc(Cc2n[nH]c(=O)c3ccccc23)ccc1F)N1CCN(C(=O)C2CC2)CC1 [Olaparib]
clonogenic survival upon PARPi exposure after TRIP12 down-regulation [3]: greatly sensitized

SMILES: CNCc1ccc(-c2[nH]c3cc(F)cc4c3c2CCNC4=O)cc1 [Rucaparib]
clonogenic survival upon PARPi exposure after TRIP12 down-regulation [3]: Very similar results

SMILES: Cn1ncnc1[C@H]1c2n[nH]c(=O)c3cc(F)cc(c23)N[C@@H]1c1ccc(F)cc1 [Talazoparib]
clonogenic survival upon PARPi exposure after TRIP12 down-regulation [3]: Very similar results
